In PMC3041857 (Journal of medicinal chemistry, 2011):

tested on: MDR1-MDCK cell monolayers

SMILES | Permeability (in words)
COc1ccc(-c2csc(Nc3ccc4ccccc4n3)n2)cc1OC [Compound 18, [4-(3,4-dimethoxyphenyl)-thiazol-2-yl]-quinolin-2-yl-amine] | greater permeability in the absorptive direction
COc1ccc(-c2csc(Nc3ccc(C(F)(F)F)cn3)n2)cc1OC [Compound 12, [4-(3,4-dimethoxyphenyl)-thiazol-2-yl]-(5-trifluoromethylpyridin-2-yl)-amine] | greater permeability in the absorptive direction
Cc1ccc(Nc2nc(-c3c(-c4ccccc4)noc3C)cs2)nc1 [Compound 28, [4-(5-Methyl-3-phenylisoxazol-4-yl)-thiazol-2-yl]-(5-methylpyridin-2-yl)-amine] | greater permeability in the absorptive direction
